Tested on: 227483-062-R1-J1-PDC complex spheroids with HUVEC/MSC, viability
Assay: Anticancer human tumor 227483-062-R1-J1-PDC patient-derived pancreatic carcinoma cell line growth inhibition [CLK]
Settings: for IC50: curve of first compound; for viability, T/C: stronger effect = lower value; active = viability on the fitted dose curve at most 10% of control; inactive = the rest
How it was run: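 Multi-cell-type spheroids combined patient-derived tumor cells with HUVEC endothelial cells and human mesenchymal stem cells. Paired agents were dosed in half-log steps down from about clinical Cmax, or from 10 microM where Cmax was unknown.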

[1] = second compound 0.0316 µM, first compound 0.0316 µM
[2] = second compound 0.0316 µM, first compound 0.1 µM
[3] = second compound 0.0316 µM, first compound 0.316 µM
[4] = second compound 0.0316 µM, first compound 1 µM
[5] = second compound 0.0316 µM, first compound 3.16 µM
[6] = second compound 0.0316 µM, first compound 10 µM
[7] = second compound 0.1 µM, first compound 0.0316 µM
[8] = second compound 0.1 µM, first compound 0.1 µM
[9] = second compound 0.1 µM, first compound 0.316 µM
[10] = second compound 0.1 µM, first compound 1 µM
[11] = second compound 0.1 µM, first compound 3.16 µM
[12] = second compound 0.1 µM, first compound 10 µM
[13] = second compound 0.316 µM, first compound 0.0316 µM
[14] = second compound 0.316 µM, first compound 0.1 µM
[15] = second compound 0.316 µM, first compound 0.316 µM
[16] = second compound 0.316 µM, first compound 1 µM
[17] = second compound 0.316 µM, first compound 3.16 µM
[18] = second compound 0.316 µM, first compound 10 µM
[19] = second compound 1 µM, first compound 0.0316 µM
[20] = second compound 1 µM, first compound 0.1 µM
[21] = second compound 1 µM, first compound 0.316 µM
[22] = second compound 1 µM, first compound 1 µM
[23] = second compound 1 µM, first compound 3.16 µM
[24] = second compound 1 µM, first compound 10 µM
[25] = second compound 3.16 µM, first compound 0.0316 µM
[26] = second compound 3.16 µM, first compound 0.1 µM
[27] = second compound 3.16 µM, first compound 0.316 µM
[28] = second compound 3.16 µM, first compound 1 µM
[29] = second compound 3.16 µM, first compound 3.16 µM
[30] = second compound 3.16 µM, first compound 10 µM
[31] = second compound 10 µM, first compound 0.0316 µM
[32] = second compound 10 µM, first compound 0.1 µM
[33] = second compound 10 µM, first compound 0.316 µM
[34] = second compound 10 µM, first compound 1 µM
[35] = second compound 10 µM, first compound 3.16 µM
[36] = second compound 10 µM, first compound 10 µM
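Also: spheroids exposed to compounds for seven days before readout.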
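For viability, T/C in this document: percent of DMSO vehicle control luminescence as 100% viability.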

C#Cc1c(F)ccc2cc(O)cc(-c3ncc4c(N5CC6CCC(C5)N6)nc(OCC56CCCN5CC(F)C6)nc4c3F)c12 (centres undefined) + CNC(=O)c1ccc(Nc2nc(OC3CCCC3)c3c(-c4ccc5nc(C)oc5c4)c[nH]c3n2)c(OC)c1
5.62 µM: IC50 (second compound 1 µM)
< 0.0316 µM: IC50 (second compound 10 µM)
0.301 µM: IC50 (second compound 3.16 µM)
> 10 µM: IC50 (second compound 0.0316 µM) | IC50 (second compound 0.1 µM) | IC50 (second compound 0.316 µM)
inactive: viability, T/C [1] 101% | viability, T/C [2] 110% | viability, T/C [3] 112% | viability, T/C [4] 131% | viability, T/C [5] 122% | viability, T/C [6] 87.7% | viability, T/C [7] 96.2% | viability, T/C [8] 120% | viability, T/C [9] 116% | viability, T/C [10] 111% | viability, T/C [11] 127% | viability, T/C [12] 68.5% | viability, T/C [13] 106% | viability, T/C [14] 97.7% | viability, T/C [15] 94.8% | viability, T/C [16] 100% | viability, T/C [17] 87.8% | viability, T/C [18] 58.9% | viability, T/C [19] 78.3% | viability, T/C [20] 71.9% | viability, T/C [21] 74.7% | viability, T/C [22] 61.9% | viability, T/C [23] 61.1% | viability, T/C [24] 41.6% | viability, T/C [25] 49.2% | viability, T/C [26] 57.4% | viability, T/C [27] 51% | viability, T/C [28] 41.9% | viability, T/C [29] 43.8% | viability, T/C [30] 33.5% | viability, T/C [31] 42.1% | viability, T/C [32] 38% | viability, T/C [33] 43.7% | viability, T/C [34] 34.6% | viability, T/C [35] 34.8% | viability, T/C [36] 28.3%

C=C(F)C(=O)N1CCN(c2nc(OCC3CCCN3C)nc3c2CCN(c2cccc4cccc(Cl)c24)C3)CC1CC#N (centres undefined) + CNC(=O)c1ccc(Nc2nc(OC3CCCC3)c3c(-c4ccc5nc(C)oc5c4)c[nH]c3n2)c(OC)c1
0.169 µM: IC50 (second compound 3.16 µM)
active: viability, T/C [12] 8.35% | viability, T/C [18] 3.32% | viability, T/C [24] 0.65% | viability, T/C [30] 0.26% | viability, T/C [36] 0.39%
5.82 µM: IC50 (second compound 0.316 µM)
< 0.0316 µM: IC50 (second compound 10 µM)
5.79 µM: IC50 (second compound 0.1 µM)
5.41 µM: IC50 (second compound 0.0316 µM)
3.78 µM: IC50 (second compound 1 µM)
inactive: viability, T/C [1] 116% | viability, T/C [2] 98% | viability, T/C [3] 117% | viability, T/C [4] 121% | viability, T/C [5] 83.9% | viability, T/C [6] 11.4% | viability, T/C [7] 113% | viability, T/C [8] 118% | viability, T/C [9] 93.7% | viability, T/C [10] 103% | viability, T/C [11] 96.5% | viability, T/C [13] 95.9% | viability, T/C [14] 84.2% | viability, T/C [15] 101% | viability, T/C [16] 102% | viability, T/C [17] 130% | viability, T/C [19] 79.6% | viability, T/C [20] 57.4% | viability, T/C [21] 67.7% | viability, T/C [22] 69% | viability, T/C [23] 58.8% | viability, T/C [25] 52.3% | viability, T/C [26] 47.2% | viability, T/C [27] 51.9% | viability, T/C [28] 41.6% | viability, T/C [29] 22% | viability, T/C [31] 42.4% | viability, T/C [32] 43.3% | viability, T/C [33] 40.3% | viability, T/C [34] 29% | viability, T/C [35] 16.1%

— PubChem BioAssay AID2060623 (Molecular Pharmacology Branch, DTP, NCI, 2025)
